PubChem BioAssay AID2060504 (Molecular Pharmacology Branch, DTP, NCI, 2025)
pIC50: −log10 of the molar value. Values belong to the compound of their own block, whether it stands above or below them.

Tested on: 636577-100-R-J1-PDC complex spheroid viability
Assay: Anticancer human tumor 636577-100-R-J1-PDC patient-derived endometrial adenocarcinoma cell line growth inhibition [GQUAD]
Settings: for pIC50: curve of first compound; for viability, T/C: stronger effect = lower value
Description: DNA G-quadruplex Stabilizer Agents in Combinations in Complex Spheroids
A high-throughput screen of multi-cell type tumor spheroids was designed to identify active combinations of DNA G-quadruplex stabilizer agents and targeted small molecules. Complex spheroids include a stromal component modeled by human endothelial cells (HUVEC) and fibroblasts modeled by human mesenchymal stem cells (MSCs). The concentration ranges selected for each drug and investigational agent were based upon clinically achievable concentrations if the clinical Cmax of the agent was known.
Compounds. The drugs and investigational agents: pidnarulex (CX-5461; NSC782164), APTO-253 (NSC789042), BRACO-19 (NSC847499), peposertib (NSC802822), ceralasertib (NSC780249), elimusertib (NSC800525), camonsertib (NSC841442), AZD-1390 (NSC803789), olaparib (NSC753686), talazoparib (NSC767125), ART-558 (NSC835418), sotorasib (NSC818433), MRTX-1133 (NSC836407), SN-38 (NSC673596), topotecan (NSC609699), etoposide (NSC141540), doxorubicin (NSC123127), gemcitabine (NSC613327), 5-fluorouracil (NSC19893), paclitaxel (NSC125973), vemurafenib (NSC761431), panobinostat (NSC761190), R-306465 (JNJ-16241199; NSC773264), adavosertib (NSC754352), TP-3654 (NSC805149), carboplatin (NSC241240), KSQ-4279 (NSC840948), and staurosporine (NSC755774) were obtained from the National Cancer Institute (NCI) Developmental Therapeutics Program Chemical Repository (34). The FDA-approved anticancer drug set is available from the NCI Developmental Therapeutics Program. […] The stock solutions were prepared in dimethyl sulfoxide (DMSO, Sigma-Aldrich, St. Louis, MO, cat. D2650) at 800-fold the tested concentration and stored at -70 degrees C prior to their use. All drugs and investigational agents were tested over a range starting from a high concentration at or near the clinical Cmax and decreasing in half-log increments. If the clinical Cmax for an agent had not been determined, the highest concentration tested was 10 microM.
2.3 Cell Culture. All cells were maintained in an incubator at 37 degrees C and 5% CO2 with 95% humidity. The PDC lines were cultured according to standard operating procedures established by the NCI PDMR. All PDCs were thawed and cultured in Matrigel-coated flasks prepared with a working solution of 1X Ham's F-12 nutrient mix, without supplementation (Invitrogen, cat. 11765054), 100 U/mL penicillin-streptomycin (Invitrogen, cat. 15140122), and 2.5% Matrigel (Corning Inc., cat. 354248) for the first three passages. The 857933-349-R-J2-PDC line was cultured in 6C/Colon 1B media, which includes advanced DMEM/F-12 (Thermo Fisher Scientific, cat. 12634028), 10 mM HEPES (Thermo Fisher Scientific, cat. 15630080), 1X GlutaMAX supplement (Thermo Fisher Scientific, cat. 35050061), 0.1 mg/mL primocin (InvivoGen, cat. ant-pm-2), 10% defined fetal bovine serum, heat inactivated (HyClone Laboratories Inc., cat. SH30070.03HI), 50% L-WRN conditioned media (ATCC, cat. CRL-3276), 1.25 mM N-Acetyl-L-cysteine (Sigma-Aldrich, cat. A9165), 10 mM nicotinamide (Sigma-Aldrich, cat. N0636), 1X B-27 supplement (Thermo Fisher Scientific, cat. 17504044), 1X N-2 supplement (Thermo Fisher Scientific, cat. 17502048), 10 microM Y-27632 dihydrochloride (Tocris Bioscience, cat. 1254), and 50 ng/mL human EGF recombinant protein (Thermo Fisher Scientific, cat. PHG0311). The 485176-168-R4-J1-PDC line was cultured in Panc media, which includes all 6C/Colon 1B media components plus 100 ng/mL human FGF-10 (Thermo Fisher Scientific, cat. 100-26), 500 nM SB-431542 (Selleckchem, cat. S1067), and gastrin (Tocris, cat. 3006).
[…]

[1] = second compound 0.0316 µM, first compound 0.0316 µM
[2] = second compound 0.0316 µM, first compound 0.1 µM
[3] = second compound 0.0316 µM, first compound 0.316 µM
[4] = second compound 0.0316 µM, first compound 1 µM
[5] = second compound 0.0316 µM, first compound 3.16 µM
[6] = second compound 0.0316 µM, first compound 10 µM
[7] = second compound 0.1 µM, first compound 0.0316 µM
[8] = second compound 0.1 µM, first compound 0.1 µM
[9] = second compound 0.1 µM, first compound 0.316 µM
[10] = second compound 0.1 µM, first compound 1 µM
[11] = second compound 0.1 µM, first compound 3.16 µM
[12] = second compound 0.1 µM, first compound 10 µM
[13] = second compound 0.316 µM, first compound 0.0316 µM
[14] = second compound 0.316 µM, first compound 0.1 µM
[15] = second compound 0.316 µM, first compound 0.316 µM
[16] = second compound 0.316 µM, first compound 1 µM
[17] = second compound 0.316 µM, first compound 3.16 µM
[18] = second compound 0.316 µM, first compound 10 µM
[19] = second compound 1 µM, first compound 0.0316 µM
[20] = second compound 1 µM, first compound 0.1 µM
[21] = second compound 1 µM, first compound 0.316 µM
[22] = second compound 1 µM, first compound 1 µM
[23] = second compound 1 µM, first compound 3.16 µM
[24] = second compound 1 µM, first compound 10 µM
[25] = second compound 3.16 µM, first compound 0.0316 µM
[26] = second compound 3.16 µM, first compound 0.1 µM
[27] = second compound 3.16 µM, first compound 0.316 µM
[28] = second compound 3.16 µM, first compound 1 µM
[29] = second compound 3.16 µM, first compound 3.16 µM
[30] = second compound 3.16 µM, first compound 10 µM
[31] = second compound 10 µM, first compound 0.0316 µM
[32] = second compound 10 µM, first compound 0.1 µM
[33] = second compound 10 µM, first compound 0.316 µM
[34] = second compound 10 µM, first compound 1 µM
[35] = second compound 10 µM, first compound 3.16 µM
[36] = second compound 10 µM, first compound 10 µM
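Further: viability read after seven days of drug exposure.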
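Wherever viability, T/C is given: luminescence signal used as a proxy for viable cells; 100% = DMSO vehicle control wells.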

pIC50 (second compound 0.0316 µM): > 7.50 | pIC50 (second compound 0.1 µM): > 7.50 | pIC50 (second compound 0.316 µM): > 7.50 | pIC50 (second compound 1 µM): > 7.50 | pIC50 (second compound 3.16 µM): > 7.50 | pIC50 (second compound 10 µM): > 7.50
SMILES: C#Cc1c(F)ccc2cc(O)cc(-c3ncc4c(N5CC6CCC(C5)N6)nc(OCC56CCCN5CC(F)C6)nc4c3F)c12 (centres undefined) + Cc1cnc(CNC(=O)c2c(=O)c3ccc(N4CCCN(C)CC4)nc3n3c2sc2ccccc23)cn1
viability, T/C [1]: 48.3% | viability, T/C [2]: 45.1% | viability, T/C [3]: 46% | viability, T/C [4]: 30.9% | viability, T/C [5]: 38% | viability, T/C [6]: 28.6% | viability, T/C [7]: 31.6% | viability, T/C [8]: 26.9% | viability, T/C [9]: 25.8% | viability, T/C [10]: 21.6% | viability, T/C [11]: 22.5% | viability, T/C [12]: 20% | viability, T/C [13]: 22.2% | viability, T/C [14]: 22.6% | viability, T/C [15]: 25% | viability, T/C [16]: 18.9% | viability, T/C [17]: 19.8% | viability, T/C [18]: 16% | viability, T/C [19]: 18.4% | viability, T/C [20]: 19% | viability, T/C [21]: 21% | viability, T/C [22]: 18.1% | viability, T/C [23]: 15.7% | viability, T/C [24]: 13.3% | viability, T/C [25]: 17.1% | viability, T/C [26]: 20.5% | viability, T/C [27]: 19.5% | viability, T/C [28]: 17.4% | viability, T/C [29]: 17% | viability, T/C [30]: 16.5% | viability, T/C [31]: 19.3% | viability, T/C [32]: 16.1% | viability, T/C [33]: 20.3% | viability, T/C [34]: 17.5% | viability, T/C [35]: 19.7% | viability, T/C [36]: 16.2%

SMILES: O=C(NO)c1cnc(N2CCN(S(=O)(=O)c3ccc4ccccc4c3)CC2)nc1 + Cc1[nH]c2ccc(F)cc2c1-c1nc2c3cccnc3c3ncccc3c2[nH]1
pIC50 (second compound 0.0316 µM): 7.29 | pIC50 (second compound 0.1 µM): 7.24 | pIC50 (second compound 0.316 µM): 7.32 | pIC50 (second compound 1 µM): 7.33 | pIC50 (second compound 3.16 µM): > 7.50 | pIC50 (second compound 10 µM): > 7.50 | viability, T/C [1]: 69.7% | viability, T/C [2]: 21.1% | viability, T/C [3]: 11.5% | viability, T/C [4]: 7.28% | viability, T/C [5]: 0.23% | viability, T/C [6]: 0.1% | viability, T/C [7]: 68.2% | viability, T/C [8]: 33.2% | viability, T/C [9]: 15.2% | viability, T/C [10]: 5.55% | viability, T/C [11]: 0.5% | viability, T/C [12]: 0.09% | viability, T/C [13]: 60.2% | viability, T/C [14]: 31.4% | viability, T/C [15]: 17.2% | viability, T/C [16]: 7.41% | viability, T/C [17]: 1% | viability, T/C [18]: 0.08% | viability, T/C [19]: 60.2% | viability, T/C [20]: 29% | viability, T/C [21]: 16.6% | viability, T/C [22]: 6.03% | viability, T/C [23]: 1.47% | viability, T/C [24]: 0.08% | viability, T/C [25]: 25.8% | viability, T/C [26]: 19.7% | viability, T/C [27]: 17.1% | viability, T/C [28]: 7.07% | viability, T/C [29]: 2.05% | viability, T/C [30]: 0.09% | viability, T/C [31]: 29.5% | viability, T/C [32]: 22.4% | viability, T/C [33]: 14.3% | viability, T/C [34]: 6.09% | viability, T/C [35]: 2.61% | viability, T/C [36]: 0.11%
